Values of other authors as cited in US5030638A, “Method of antiviral enhancement” (priority 1990, dated 1991).

Assays:
trimming glucosidase II = settings: Hettkamp et al.; cited from earlier work
trimming glucosidase I = settings: Hettkamp et al.; cited from earlier work
HIV = settings: literature; cited from earlier work
α-glycosidase = settings: literature; cited from earlier work

Row | Structure (SMILES) | effect on trimming glucosidase II (trimming glucosidase II) | effect on trimming glucosidase I (trimming glucosidase I) | HIV inhibitory / antiviral activity (HIV) | α-glycosidase inhibitory activity (α-glycosidase)
1 | CCCCCCCCCCCCN1C[C@H](O)[C@@H](O)[C@H](O)[C@H]1CO [N-dodecyl-1-deoxynojirimycin] | to a lesser degree than deoxynojirimycin or N-methyl-deoxynojirimycin | to a lesser degree than deoxynojirimycin or N-methyl-deoxynojirimycin |  | 
2 | OC[C@H]1NCC[C@@H](O)[C@@H]1O [fagomine] |  |  | no HIV inhibition was observed | known to have α-glycosidase inhibitory activity
